For experiment [1], the target named is T1, Retinoic acid receptor RXR-gamma (Homo sapiens, UniProt P48443).
T1 sequence (P48443 whole entry): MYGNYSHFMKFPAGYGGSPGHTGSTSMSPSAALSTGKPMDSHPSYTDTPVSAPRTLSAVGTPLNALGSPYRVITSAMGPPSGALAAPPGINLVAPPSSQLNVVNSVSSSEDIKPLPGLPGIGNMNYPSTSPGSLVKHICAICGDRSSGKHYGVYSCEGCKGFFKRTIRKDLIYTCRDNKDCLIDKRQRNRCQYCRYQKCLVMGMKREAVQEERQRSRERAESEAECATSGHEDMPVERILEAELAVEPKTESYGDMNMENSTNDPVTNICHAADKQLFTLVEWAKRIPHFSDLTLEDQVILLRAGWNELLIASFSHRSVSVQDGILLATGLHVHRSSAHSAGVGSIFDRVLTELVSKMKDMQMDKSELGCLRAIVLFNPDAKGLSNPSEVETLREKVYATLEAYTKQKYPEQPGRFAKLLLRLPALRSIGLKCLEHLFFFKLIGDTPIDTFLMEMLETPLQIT
The experiment is described as follows: Binding affinity towards Retinoic acid receptor RXR-gamma by displacing 3.4 nM 3[H]-9-cis-RA; No binding competition.

For experiment [2], the target named is T1, Retinoic acid receptor RXR-gamma. The experiment is described as follows: Binding affinity towards Retinoic acid receptor RXR-gamma by displacing 3.4 nM 3[H]-9-cis-RA; IA = Inactive.
Experiment [3] addresses T2, Retinoic acid receptor beta (Homo sapiens, UniProt P10826).
T2 sequence (P10826 whole entry): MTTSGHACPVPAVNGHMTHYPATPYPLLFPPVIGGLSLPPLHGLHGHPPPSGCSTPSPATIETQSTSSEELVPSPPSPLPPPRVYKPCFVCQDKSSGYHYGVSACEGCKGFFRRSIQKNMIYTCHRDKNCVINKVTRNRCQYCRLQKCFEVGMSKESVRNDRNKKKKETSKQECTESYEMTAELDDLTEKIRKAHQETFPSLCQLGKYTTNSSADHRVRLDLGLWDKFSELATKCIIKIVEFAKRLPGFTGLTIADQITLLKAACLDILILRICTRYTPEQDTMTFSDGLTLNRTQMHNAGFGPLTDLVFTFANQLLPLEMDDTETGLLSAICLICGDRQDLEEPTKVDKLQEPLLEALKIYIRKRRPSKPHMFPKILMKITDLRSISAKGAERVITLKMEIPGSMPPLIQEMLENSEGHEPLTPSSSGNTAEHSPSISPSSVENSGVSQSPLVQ
Put plainly: Binding affinity towards cRAR-beta-2 receptor by displacing 1.1 nM 3[H]-9-cis-RA; IA = Inactive.

Experiment [4] concerns the target T2, Retinoic acid receptor beta. Put plainly: Binding affinity towards cRAR-beta-2 receptor by displacing 0.82 nM 3[H]-all-trans-RA; IA = Inactive.
Experiment [5] has the same target. Put plainly: Binding affinity towards cRARbeta2 receptor by displacing 0.82 nM 3[H]all-trans-RA.
The target of experiment [6] is T3, Retinoic acid receptor gamma (Homo sapiens, UniProt P13631).
T3 sequence (P13631 whole entry): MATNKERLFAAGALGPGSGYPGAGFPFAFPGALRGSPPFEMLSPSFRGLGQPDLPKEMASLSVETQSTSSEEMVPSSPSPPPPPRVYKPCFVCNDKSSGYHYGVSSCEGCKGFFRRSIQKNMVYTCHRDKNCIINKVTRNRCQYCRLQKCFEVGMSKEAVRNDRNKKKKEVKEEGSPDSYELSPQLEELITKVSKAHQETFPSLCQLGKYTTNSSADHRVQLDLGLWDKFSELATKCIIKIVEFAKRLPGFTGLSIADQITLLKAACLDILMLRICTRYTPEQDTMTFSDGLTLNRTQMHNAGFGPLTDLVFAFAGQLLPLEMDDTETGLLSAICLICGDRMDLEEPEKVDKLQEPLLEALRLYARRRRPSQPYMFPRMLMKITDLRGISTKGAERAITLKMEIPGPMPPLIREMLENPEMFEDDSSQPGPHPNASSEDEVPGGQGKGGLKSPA
The experiment is described as follows: Binding affinity towards human Retinoic acid receptor gamma.

Experiment [7] addresses T4, Retinoic acid receptor alpha (Homo sapiens, UniProt P10276).
T4 sequence (P10276 whole entry): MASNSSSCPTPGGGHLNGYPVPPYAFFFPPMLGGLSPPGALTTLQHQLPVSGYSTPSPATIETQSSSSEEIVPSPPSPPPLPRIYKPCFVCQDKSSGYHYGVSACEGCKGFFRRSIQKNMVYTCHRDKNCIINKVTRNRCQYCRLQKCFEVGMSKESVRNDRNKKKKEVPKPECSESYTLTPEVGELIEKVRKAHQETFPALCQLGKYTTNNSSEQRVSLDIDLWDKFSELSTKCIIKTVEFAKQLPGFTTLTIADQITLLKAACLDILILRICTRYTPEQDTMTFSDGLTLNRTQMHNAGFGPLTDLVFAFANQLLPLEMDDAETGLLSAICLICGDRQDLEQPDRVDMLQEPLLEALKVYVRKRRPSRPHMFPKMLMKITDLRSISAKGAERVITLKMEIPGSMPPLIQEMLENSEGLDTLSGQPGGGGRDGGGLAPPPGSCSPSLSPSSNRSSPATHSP
Put plainly: Binding affinity towards human Retinoic acid receptor alpha.

The target in experiment [8] is T1, Retinoic acid receptor RXR-gamma. Put plainly: Binding affinity towards Retinoic acid receptor RXR-gamma by displacing 3.4 nM 3[H]-9-cis-RA.
For experiment [9], the target named is T2, Retinoic acid receptor beta. The experiment is described as follows: Binding affinity towards cRAR-beta-2 receptor by displacing 1.1 nM 3[H]-9-cis-RA.

One may read the Ki as a dissociation constant, usually derived from enzyme kinetics or from competition with a known ligand. Higher therefore signals weaker binding.

The structures appear in SMILES notation.

Regarding `C/C(=C\c1ccc(C(=O)O)cc1)c1ccc2c(c1)C(C)(C)CCC2(C)C`, the Ki result in experiment [1] was “Not Active”.

As to `CCOC(=O)[C@H]1C[C@@]1(C)/C=C/C=C(C)/C=C/C1=C(C)CCCC1(C)C`, the Ki result in [2], in [3] and in experiment [4] was “Not Active” throughout.

Consider `CC(=C/C(=O)O)/C=C/C1CC1/C=C/C1=CC(C)(C)CCC1(C)C` (stereo not drawn), for which the Ki in [5] was greater than 1100 nM; in experiment [6], greater than 4000 nM; in experiment [7], greater than 4000 nM; in experiment [8], greater than 2800 nM; in [9], greater than 1200 nM.

Take `CC(/C=C/C1CC1/C=C/C1=CC(C)(C)CCC1(C)C)=C\C(=O)O` (stereo not drawn): the Ki is 11 nM in experiment [5]; 32 nM in experiment [6]; 3.1 nM in experiment [7]; greater than 7200 nM in [8]; 13 nM in [9].

With `CC1=C(/C=C/C(C)=C/C=C/C(C)=C/C(=O)O)C(C)(C)CCC1` [TRETINOIN], in experiment [1], the Ki result was “Not Active”.

In the case of `CCOC(=O)[C@@H]1C[C@@]1(C)/C=C/C=C(C)/C=C/C1=C(C)CCCC1(C)C`, the inhibition constant Ki result in experiment [2], in experiment [3] and in experiment [4] was “Not Active” each time.
